This is an account of results in patent publication US10472336B2, “Modulators of indoleamine 2,3-dioxygenase” (GlaxoSmithKline Intellectual Property (No.2) Limited, priority 2015, dated 2019).

Broadly, the EC50 is the concentration giving half of the maximal effect. A low value points to higher potency in that assay.

Where a name gives a salt, the structure may show the parent alone.

Chain of indoleamine 2, 3-dioxygenase (IDO1) (P14902 whole entry): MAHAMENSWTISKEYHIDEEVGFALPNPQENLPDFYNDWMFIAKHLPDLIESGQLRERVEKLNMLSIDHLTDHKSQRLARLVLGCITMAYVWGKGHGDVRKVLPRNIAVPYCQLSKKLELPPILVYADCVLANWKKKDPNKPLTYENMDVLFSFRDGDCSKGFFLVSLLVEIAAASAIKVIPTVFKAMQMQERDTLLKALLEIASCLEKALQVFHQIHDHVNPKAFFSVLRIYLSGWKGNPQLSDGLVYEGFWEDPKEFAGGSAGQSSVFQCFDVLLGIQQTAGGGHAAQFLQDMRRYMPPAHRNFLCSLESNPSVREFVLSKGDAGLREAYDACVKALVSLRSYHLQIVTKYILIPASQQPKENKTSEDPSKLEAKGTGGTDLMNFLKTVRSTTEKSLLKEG

The experiment has as its target indoleamine 2, 3-dioxygenase (IDO1) (Homo sapiens, UniProt P14902). Nature of the experiment: HeLa IDOi assay (kynurenine detection by mass spectrometry). In kind it is cell-based. Also on record: human epithelial HeLa cells (CCL-2; host or cells: HeLa cells stimulated with human IFN-γ. The settings on record: IFN-γ stimulated human epithelial HeLa cells, 2 days. Here is the method: Compounds of the present invention were tested via high-throughput cellular assays utilizing detection of kynurenine via mass spectrometry and cytotoxicity as end-points. For the mass spectrometry and cytotoxicity assays, human epithelial HeLa cells (CCL-2; ATCC®, Manassas, Va.) were stimulated with human interferon-γ (IFN-γ) (Sigma-Aldrich Corporation, St. Louis, Mo.) to induce the expression of indoleamine 2, 3-dioxygenase (IDO1). Compounds with IDO1 inhibitory properties decreased the amount of kynurenine produced by the cells via the tryptophan catabolic pathway. Cellular toxicity due to the effect of compound treatment was measured using CellTiter-Glo® reagent (CTG) (Promega Corporation, Madison, Wis.), which is based on luminescent detection of ATP, an indicator of metabolically active cells.
In preparation for the assays, test compounds were serially diluted 3-fold in DMSO from a typical top concentration of 5 mM and plated at 0.5 μL in 384-well, polystyrene, clear bottom, tissue culture treated plates with lids (Greiner Bio-One, Kremsmünster, Austria) to generate 11-point dose response curves. Low control wells (0% kynurenine or 100% cytotoxicity) contained either 0.5 μL of DMSO in the presence of unstimulated (−IFN-γ) HeLa cells for the mass spectrometry assay or 0.5 μL of DMSO in the absence of cells for the cytotoxicity assay, and high control wells (100% kynurenine or 0% cytotoxicity) contained 0.5 μL of DMSO in the presence of stimulated (+IFN-γ) HeLa cells for both the mass spectrometry and cytotoxicity assays.
Frozen stocks of HeLa cells were washed and recovered in DMEM high glucose medium with HEPES (Thermo Fisher Scientific, Inc., Waltham, Mass.) supplemented with 10% v/v certified fetal bovine serum (FBS) (Thermo Fisher Scientific, Inc., Waltham, Mass.), and 1× penicillin-streptomycin antibiotic solution (Thermo Fisher Scientific, Inc., Waltham, Mass.). The cells were diluted to 100,000 cells/mL in the supplemented DMEM medium. 50 μL of either the cell suspension, for the mass spectrometry assay, or medium alone, for the cytotoxicity assay, were added to the low control wells, on the previously prepared 384-well compound plates, resulting in 5,000 cells/well or 0 cells/well respectively. IFN-γ was added to the remaining cell suspension at a final concentration of 10 nM, and 50 μL of the stimulated cells were added to all remaining wells on the 384-well compound plates. The plates, with lids, were then placed in a 37° C., 5% CO2 humidified incubator for 2 days.
Following incubation, the 384-well plates were removed from the incubator and allowed to equilibrate to room temperature for 30 minutes. For the cytotoxicity assay, CellTiter-Glo® was prepared according to the manufacturer's instructions, and 10 μL were added to each plate well. After a twenty minute incubation at room temperature, luminescence was read on an EnVision® Multilabel Reader (PerkinElmer Inc., Waltham, Mass.). For the mass spectrometry assay, 10 μL of supernatant from each well of the compound-treated plates were added to 40 μL of acetonitrile, containing 10 μM of an internal standard for normalization, in 384-well, polypropylene, V-bottom plates (Greiner Bio-One, Kremsmünster, Austria) to extract the organic analytes. Following centrifugation at 2000 rpm for 10 minutes, 10 μL from each well of the acetonitrile extraction plates were added to 90 μL of sterile, distilled H2O in 384-well, polypropylene, V-bottom plates for analysis of kynurenine and the internal standard on the RapidFire 300 (Agilent Technologies, Santa Clara, Calif.) and 4000 QTRAP MS (SCIEX, Framingham, Mass.). MS data were integrated using Agilent Technologies' RapidFire Integrator software, and data were normalized for analysis as a ratio of kynurenine to the internal standard. […]
`CC(C)CN(CC(C)C)c1ccc(C(C)CC(=O)O)cc1Nc1nc2ccccc2[nH]1` (stereo not shown) [Example 2, 3-(3-((1H-benzo[d]imidazol-2-yl)amino)-4-(diisobutylamino)phenyl)butanoic acid] showed an EC50 of 3.98 nM.
To `CC(C)CN(CC(C)C)c1ccc(C(C)CC(=O)O)cc1Nc1nc(-c2ccccc2)co1` (stereo not shown) [Example 3, 3-(4-(diisobutylamino)-3-((4-phenyloxazol-2-yl)amino)phenyl)butanoic acid] belongs 501 nM.
To `CC(C)CN(CC(C)C)c1ccc(C(C)CC(=O)O)cc1Nc1nc(C(C)C)co1` (stereo not shown) [Example 4, 3-(4-(diisobutylamino)-3-((4-isopropyloxazol-2-yl)amino)phenyl)butanoic acid] belongs 631 nM; to `CC(C)CN(CC(C)C)c1ccc(C(C)CC(=O)O)cc1Nc1nc(C(F)(F)F)co1` (stereo not shown) [Example 5, 3-(4-(diisobutylamino)-3-((4-(trifluoromethyl)oxazol-2-yl)amino)phenyl)butanoic acid], 20 nM; to `CC(C)CN(c1ccc(C(C)CC(=O)O)cc1Nc1nc2ccccc2[nH]1)C1CCCCC1` (stereo not shown) [Example 6, 3-(3-((1H-benzo[d]imidazol-2-yl)amino)-4-(cyclohexyl(isobutyl)amino)phenyl)butanoic acid], 2.51 nM.
The value for `CC(C)CN(c1ccc(C(C)CC(=O)O)cc1Nc1nc(Cl)ns1)C1CCCCC1` (stereo not shown) [Example 7, 3-(3-((3-chloro-1,2,4-thiadiazol-5-yl)amino)-4-(cyclohexyl(isobutyl)amino)phenyl)butanoic acid] was 5.01 nM.
Compound `CC(C)CN(c1ccc(C(C)CC(=O)O)cc1Nc1nc2ccccc2o1)C1CCCCC1` (stereo not shown) [Example 8, 3-(3-(benzo[d]oxazol-2-ylamino)-4-(cyclohexyl(isobutyl)amino)phenyl)butanoic acid] gave a concentration for a half-maximal effect (EC50) of 31.6 nM.
To `CC(C)CN(c1ccc(C(C)CC(=O)O)cc1Nc1nc2ccccc2s1)C1CCCCC1` (stereo not shown) [Example 9, 3-(3-(benzo[d]thiazol-2-ylamino)-4-(cyclohexyl(isobutyl)amino)phenyl)butanoic acid] belongs 3.98 nM; to `CC(C)CN(c1ccc(C(C)CC(=O)O)cc1Nc1nc(-c2ccccc2)co1)C1CCCCC1` (stereo not shown) [Example 10, 3-(4-(cyclohexyl(isobutyl)amino)-3-((4-phenyloxazol-2-yl)amino)phenyl)butanoic acid], 100 nM.
As for `CC(C)CN(CC(C)C)c1ccc(C(C)CC(=O)O)cc1Nc1ccnc(Cl)n1` (stereo not shown) [Example 11, 3-(3-((2-chloropyrimidin-4-yl)amino)-4-(diisobutylamino)phenyl)butanoic acid, 2,2,2-trifluoro-acetic acid salt], it took 100 nM to reach a half-maximal effect (EC50).
To `CC(C)CN(c1ccc(C(C)CC(=O)O)cc1Nc1ccnc(Cl)n1)C1CCCCC1` (stereo not shown) [Example 13, 3-(3-((2-chloropyrimidin-4-yl)amino)-4-(cyclohexyl(isobutyl)amino)phenyl)butanoic acid] belongs 12.6 nM; to `COc1nccc(Nc2cc(C(C)CC(=O)O)ccc2N(CC(C)C)C2CCCCC2)n1` (stereo not shown) [Example 14, 3-(4-(cyclohexyl(isobutyl)amino)-3-((2-methoxypyrimidin-4-yl)amino)phenyl)butanoic acid], 39.8 nM.
On to `Cc1cnc(Nc2cc(C(C)CC(=O)O)ccc2N(CC(C)C)CC(C)C)s1` (stereo not shown) [Example 15, 3-(4-(diisobutylamino)-3-((5-methylthiazol-2-yl)amino)phenyl)butanoic acid], for which the EC50 was 158 nM.
To `CC(C)CN(CC(C)C)c1ccc(C(C)CC(=O)O)cc1Nc1cnc(-c2ccccc2)s1` (stereo not shown) [Example 16, 3-(4-(diisobutylamino)-3-((2-phenylthiazol-5-yl)amino)phenyl)butanoic acid] belongs 126 nM; to `CCOC(=O)c1ncc(Nc2cc(C(C)CC(=O)O)ccc2N(CC(C)C)CC(C)C)s1` (stereo not shown) [Example 17, 3-(4-(diisobutylamino)-3-((2-(ethoxycarbonyl)thiazol-5-yl)amino)phenyl)butanoic acid], 25.1 nM; to `Cc1csc(Nc2cc(C(C)CC(=O)O)ccc2N(CC(C)C)CC(C)C)n1` (stereo not shown) [Example 24, 3-(4-(diisobutylamino)-3-((4-methylthiazol-2-yl)amino)phenyl)butanoic acid], 316 nM.
The compound `CC(C)CN(CC(C)C)c1ccc(C(C)CC(=O)O)cc1Nc1nnc(C2CC2)s1` (stereo not shown) [Example 26, 3-(3-((5-cyclopropyl-1,3,4-thiadiazol-2-yl)amino)-4-(diisobutylamino)phenyl)butanoic acid, 2,2,2-trifluoro-acetic acid salt] had an EC50 of 5.01 nM. This EC50 lies about 63-fold lower than the previous one.
To `CC(C)CN(CC(C)C)c1ccc(C(C)CC(=O)O)cc1Nc1nnc(-c2ccccc2)s1` (stereo not shown) [Example 27, 3-(4-(diisobutylamino)-3-((5-phenyl-1,3,4-thiadiazol-2-yl)amino)phenyl)butanoic acid] belongs 31.6 nM.
`Cc1nnc(Nc2cc(C(C)CC(=O)O)ccc2N(CC(C)C)CC(C)C)s1` (stereo not shown) [Example 28, 3-(4-(diisobutylamino)-3-((5-methyl-1,3,4-thiadiazol-2-yl)amino)phenyl)butanoic acid] had an EC50 of 31.6 nM. This counts as double-digit nanomolar.
In the case of `CC(C)CN(CC(C)C)c1ccc(C(C)CC(=O)O)cc1Nc1nc(C2CC2)ns1` (stereo not shown) [Example 30, 3-(3-((3-cyclopropyl-1,2,4-thiadiazol-5-yl)amino)-4-(diisobutylamino)phenyl)butanoic acid], the EC50 is 50.1 nM.
To `Cc1nsc(Nc2cc(C(C)CC(=O)O)ccc2N(CC(C)C)CC(C)C)n1` (stereo not shown) [Example 31, 3-(4-(diisobutylamino)-3-((3-methyl-1,2,4-thiadiazol-5-yl)amino)phenyl)butanoic acid] belongs 79.4 nM; to `CC(C)CN(CC(C)C)c1ccc(C(C)CC(=O)O)cc1Nc1nc(Br)ns1` (stereo not shown) [Example 32, 3-(3-((3-bromo-1,2,4-thiadiazol-5-yl)amino)-4-(diisobutylamino)phenyl)butanoic acid], 200 nM.
`CC(C)CN(c1ccc(C(C)CC(=O)O)cc1Nc1nc(C(F)(F)F)ns1)C1CCCCC1` (stereo not shown) [Example 33, 3-(4-(cyclohexyl(isobutyl)amino)-3-((3-(trifluoromethyl)-1,2,4-thiadiazol-5-yl)amino)phenyl)butanoic acid] gave an EC50 of 2.51 nM.
To `CCCCc1cc(C(C)CC(=O)O)cc(Nc2nc3ccccc3o2)c1OCCC` (stereo not shown) [Example 35, 3-(3-(benzo[d]oxazol-2-ylamino)-5-butyl-4-propoxyphenyl)butanoic acid] belongs 200 nM.
To `CCCCc1cc(C(C)CC(=O)O)cc(Nc2nc(Cl)ns2)c1OCCC` (stereo not shown) [Example 36, 3-(3-butyl-5-((3-chloro-1,2,4-thiadiazol-5-yl)amino)-4-propoxyphenyl)butanoic acid, 2,2,2-trifluoroacetic acid salt] belongs 158 nM; to `Cc1nc(Nc2cc(C(C)CC(=O)O)ccc2N(CC(C)C)CC(C)C)sc1C` (stereo not shown) [Example 43, 3-(4-(diisobutylamino)-3-((4,5-dimethylthiazol-2-yl)amino)phenyl)butanoic acid], 316 nM; to `CC(C)CN(CC(C)C)c1ccc(C(C)CC(=O)O)cc1Nc1nc(C(F)(F)F)cs1` (stereo not shown) [Example 44, 3-(4-(diisobutylamino)-3-((4-(trifluoromethyl)thiazol-2-yl)amino)phenyl)butanoic acid], 20 nM.
In turn, `Cc1sc(Nc2cc(C(C)CC(=O)O)ccc2N(CC(C)C)CC(C)C)nc1C(F)(F)F` (stereo not shown) [Example 45, 3-(4-(diisobutylamino)-3-((5-methyl-4-(trifluoromethyl)thiazol-2-yl)amino)phenyl)butanoic acid] gave an EC50 of 79.4 nM. This EC50 is about 4-fold higher than that of the compound before.
